Like-named read-outs stand apart in the source and are kept apart here.
What was measured:
WT-TTR = target: T1, WT-TTR (Homo sapiens, UniProt P02766); assay: Stagnant acid-mediated TTR aggregation (fibril formation) assay, turbidity at 340 nm; type: biochemical; details: for remaining activity at 7.2 µM / remaining activity at 21.6 µM / remaining activity at 50 µM / remaining activity at 100 µM: 72 h; for remaining activity at 50 µM: read-out: % FF at 50 μM; for remaining activity at 100 µM / inhibition at 100 µM: pH 4.4, compound 100 μM; for remaining activity at 100 µM: read-out: % FF; for inhibition at 100 µM: read-out: % Inhibition
T1 construct: made in house
Procedure: Stagnant Acid-Mediated TTR Aggregation Assay.
After 1 h, the samples were diluted with 0.5 ml of 200 mM sodium acetate buffer containing 100 mM KCl and 1 mM EDTA. Samples after mild vortexing were incubated at 37° C. for the desired amount of time without stirring to evaluate the efficacy of the inhibitors. The extent of aggregation was probed by turbidity measurements at 340 nm using Tecan GENios microplate reader. […] The extent of TTR fibril formation in the absence of inhibitor was defined to be 100%. […] All experiments were done in triplicate. […] The IC50 was determined by plotting mean of % inhibition vs log and fitted to sigmoid equation:
The experiments were conducted at 25° C. After 1 h, the samples were diluted with 0.5 mL of 200 mM sodium acetate buffer pH 4.4 containing 100 mM KCl and 1 mM EDTA, vortexed, and incubated at 37° C. for 72 h. […] The stoichiometry of the binding of the inhibitors was determined by HPLC as described by Green et al., N. S. Palaninathan, S, L, Sacchettini, J. e. […] Dissociation constant of binding of these compounds to TTR was determined by fluorescence titration, and data were fitted into the Adair equation for two bind mg.

TTR = target: T2, TTR (Homo sapiens, UniProt P02766); assay: Time course (kinetics) of fibril formation, turbidity at 340 nm for 3 h; type: biochemical; details: TTR 7.2 μM, inhibitor 21.6 μM, 37° C., pH 4.4, 3 h
T2 construct: made in house
Procedure: Time Course of Fibril Formation. The kinetics of inhibition was studied by incubating […] TTR with […] of different inhibitors in 100 µl of 5 mM phosphate buffer pH 7.2 for 30 min in a 96 microwell plate. […] of 0.2 M sodium acetate buffer pH 4.4 containing 1 mM EDTA and 100 mM KCl was added. The difference in turbidity was assessed by measuring the change in absorbance at 340 nm on Tecan GEnios microplate reader using Magellan software. For kinetics, parameters were set for 30 cycles at 37° C. at the interval of 5 min each and 2 min orbital shaking (low speed) between cycles and 10 sec shaking (normal speed) before measurement. All experiments were performed in triplicates. Change in absorbance at 340 nm was plotted against time in the presence and absence of inhibitors initial rate of fibril formation was calculated from the slope by linear fitting of the data.
All experiments were performed three times in triplicates. Change in absorbance (mean of three different experiments) at 340 nm was plotted against time in the presence and absence of inhibitors. Initial rate of fibril form action was calculated from the value of the slope by linear fitting of the change in absorbance at 340 nm as a function of time.

[1] = biphenyl ether 50 μM, WT-TTR 7.2 μM

Structure (SMILES)	remaining activity at 100 µM (WT-TTR; WT-TTR 7.2 μM, pH 4.4, 37° C.) [%]	inhibition at 100 µM (WT-TTR; WT-TTR 7.2 μM, pH 4.4, 37° C.) [%]	also measured
Oc1cc(CCl)ccc1Oc1ccc(Cl)cc1Cl [Compound 3]			remaining activity at 7.2 µM (WT-TTR; pH 4.4, read-out: % FF 1:1): 5%; remaining activity at 21.6 µM (WT-TTR; pH 4.4, read-out: % FF 1:3): 0%; remaining activity at 50 µM (WT-TTR): 0%; inhibition at 21.6 µM (TTR): > 80%
COc1cc(CCl)ccc1Oc1ccccc1 [Compound 8, 3-Methoxy-4-phenoxybenzyl chloride]			IC50 (WT-TTR; 50% reduction in fibril formation, TTR 7.2 μM, pH 4.4, read-out: IC50 ± SE): 1940 ± 90 nM; remaining activity at 50 µM (WT-TTR; [1]): 0%; remaining activity at 7.2 µM (WT-TTR; pH 4.4, TTR 7.2 μM, inhibitor 7.2 μM (1:1), pH 4.4, 37° C., no inhibitor = 100%, read-out: % FF 1:1): 25%; remaining activity at 21.6 µM (WT-TTR; pH 4.4, TTR 7.2 μM, inhibitor 21.6 μM (1:3), pH 4.4, 37° C., no inhibitor = 100%, read-out: % FF 1:3): 0%; IC50 (WT-TTR; TTR amyloid formation, 37° C., read-out: IC50): 470 to 3500 nM; IC50 (WT-TTR; Table 3, WT-TTR 7.2 μM, read-out: IC50): 1940 nM; inhibition at 21.6 µM (TTR): > 80%
O=C(Nc1c2c(nn1-c1ccc(F)cc1)C[S+]([O-])C2)c1ccccc1F (stereo not shown) [Compound C077-0216]	104	0	
Cc1ccccc1C1=N/C(=C\c2sccc2C)C(=O)O1 [Compound 1989-9396]	115	0	
Cn1ncc(/N=C/c2ccccc2O)c1C(=O)N1CCOCC1 [Compound 2019-0006]	50	50	
CCc1ccccc1NC(=S)N(CCN(C)C)Cc1cccs1 [Compound C087-0905]	108	0	
Nc1nc(F)cc(Oc2ccc(F)cc2)n1 [Compound 1544-0071]	84	16	
Cc1ccc2nc(NC(=O)c3ccccc3O)sc2c1 [Compound 1300-0073]	368	0	
Cc1nnc2c(Oc3ccc(Cl)cc3)nc3ccccc3n12 [Compound 5001-0261]	114	0	
Cc1nc2ccc(Cl)cc2c(O)c1CN1CCCC1 [Compound 4358-1240]	81.8	18.2	
O=C1/C(=C/c2ccc(Cl)cc2Cl)SC(=S)N1c1ccc(O)cc1 [Compound 2189-0835]	291	0	
Cc1ccc(/C=c2/sc3nc4ccccc4n3c2=O)cc1 [Compound 3062-0586]	125	0	
CCN(CC)CCCN(Cc1ccco1)C(=S)Nc1ccc(OC)cc1 [Compound C087-0785]	107	0	
CSC1=NSC2=NC(=O)/C(=C\c3ccc(O)cc3)C(=N)N12 [Compound C146-0184]	72.7	27.3	
O=C(Nc1nnc[nH]1)c1c(Cl)ccc(Cl)c1Cl [Compound 3232-0353]	11.5	88.5	
Cc1nc2c(ccc3ccccc32)c(O)c1CN1CCCC1 [Compound 3453-1335]	66.9	33.1	
Nc1cc(O)nc(SCC(=O)N2CCOCC2)n1 [Compound 3996-0165]	112	0	
CCCCN(CC)Cc1c(C)nc2ccc(Cl)cc2c1O [Compound 4358-1230]	79.7	20.3	
O=Cc1ccc(Oc2ccccc2)c(O)c1 [Compound 2]			remaining activity at 50 µM (WT-TTR): 112%
Cc1ccc2nc(Nc3nc(O)c4ccccc4n3)nc(C)c2c1 [Compound 5594-0187]	68.9	31.1	
CCN1C(=O)/C(=C/c2ccc(N(CC)CC)cc2O)SC1=S [Compound 1996-0170]	177	0	
COc1cc(CCl)ccc1Oc1ccc([N+](=O)[O-])cc1[N+](=O)[O-] [Compound 18]			remaining activity at 50 µM (WT-TTR; [1]): 79%
O=C(O)c1ccc(Oc2ccc([N+](=O)[O-])cc2[N+](=O)[O-])c(O)c1 [Compound 22]			remaining activity at 50 µM (WT-TTR; [1]): 75%
Cc1nc2c(ccc3ccccc32)c(O)c1CN(C)Cc1ccccc1 [Compound 3453-1353]	105	0	
CSC1=NSC2=NC(=O)/C(=C\c3ccc(Cl)cc3)C(=N)N12 [Compound C146-0181]	67.1	32.9	
Cc1nc2c(ccc3ccccc32)c(O)c1CN1CCOCC1 [Compound 3453-1337]	69.6	30.4	
COc1ccc(NC(=S)N(CCCN2CCOCC2)Cc2cccs2)cc1 [Compound C087-0783]	102	0	
O=C1CSC(c2ccc(Cl)cc2Cl)N1c1ccc(Cl)cc1 (stereo not shown) [Compound 8004-9890]	20.3	79.7	
Nc1nc(Cl)cc(Oc2ccccc2F)n1 [Compound 1545-0131]	52.4	47.6	
Cc1ccsc1/C=c1\sc2nc(-c3cccs3)nn2c1=O [Compound 5629-0544]	77.8	22.3	

Continued, in another order:

remaining activity at 100 µM (WT-TTR; WT-TTR 7.2 μM, pH 4.4, 37° C.) [%]	inhibition at 100 µM (WT-TTR; WT-TTR 7.2 μM, pH 4.4, 37° C.) [%]	Structure (SMILES)	also measured
102	0	O=C(O)C1CSC(c2ccc(Cl)c(Cl)c2)N1 (stereo not shown) [Compound K085-0014]	
22.3	77.7	O=C(O)C1CSC(c2ccc(Cl)cc2Cl)N1 (stereo not shown) [Compound K085-0018]	
106	0	O=C1CCCC2=C1C(c1cccc(O)c1)NC(=S)N2 (stereo not shown) [Compound C157-0040]	
202	0	CSC1=NSC2=NC(=O)/C(=C\c3ccc[nH]3)C(=N)N12 [Compound C146-0661]	
96.8	3.18	Cc1cc(C(=O)Nc2cc(Cl)ccc2O)no1 [Compound C226-2564]	
294	0	O=C1OC(/C=C/c2ccc(Cl)cc2Cl)=NC/1=C\c1cccs1 [Compound K088-1892]	
72.8	27.2	O=C(NC(c1cccc([N+](=O)[O-])c1)c1cc(Cl)c2cccnc2c1O)c1cccnc1 (stereo not shown) [Compound K839-0117]	
36.7	63.3	O=C(NC(c1ccco1)c1cc(Cl)c2cccnc2c1O)c1cccnc1 (stereo not shown) [Compound K839-0124]	
130	0	Cc1ccccc1Nc1c(-c2ccc(O)cc2)nc2ccc(Cl)cn12 [Compound C273-0223]	
117	0	O=c1c2sccc2n(Cc2ccc(F)cc2Cl)c(=O)n1-c1cc(F)ccc1F [Compound C241-0192]	
4.6	95.4	CC(C)C(=O)NC(c1ccccc1)c1ccc2cccnc2c1O (stereo not shown) [Compound K839-0067]	
142	0	O=C(O)C1CSC(c2ccc(Cl)cc2)N1 (stereo not shown) [Compound K085-0001]	
113	0	Cc1ccc2nc(-c3ccc(Cl)s3)c(Nc3ccc(Cl)cc3)n2c1 [Compound C239-0730]	
20.3	79.7	O=C(O)C1CSC(c2c(F)cccc2Cl)N1 (stereo not shown) [Compound K085-0006]	
130	0	Cc1cc(C(=O)Nc2cccnc2Cl)no1 [Compound C226-2576]	
-86.7	91.7	Cc1nc2c(C(=O)NCCC(C)C)cnn2c(O)c1Cc1ccccc1F [Compound C218-0295]	
29.6	70.4	O=C(NC(c1ccccc1)c1cc(Cl)c2cccnc2c1O)c1cccnc1 (stereo not shown) [Compound K839-0113]	
135	0	Oc1ccc(-c2nc3ncccn3c2Nc2ccc(Cl)cc2)cc1 [Compound C239-0727]	
